Data reported in the SangsterLogP compilation.

assay: method code SF-HPLC, from DOI: 10.1021/jm00047a008, PMID: 7932579; conditions: pH 5.0

For Cc1ccc2c(c1)c(C)c1c3ccccc3nc-1n2C, which logD is on record?
Its logD is 2.04.

same assay, conditions: pH 9.0

Which logD does the source give for Cc1ccc2nc3n(C)c4ccc(C)cc4c(C)c-3c2c1 here?
Its logD is 2.42.

Which logD does the source give for Cc1c2c3ccccc3nc-2n(C)c2ccccc12 here?
Its logD is 2.58.

With Cc1ccc2nc3[nH]c4ccc(C)cc4c3c(C)c2c1 as the compound, how does the logD read?
Its logD is 2.58.

For Cc1cccc2c(C)c3c(nc12)[nH]c1ccccc13, which logD is on record?
The logD was 2.92.

Which logD does the source give for Cn1c2nc3ccccc3c-2cc2ccccc21 here?
The logD was 3.04.

With Cc1c2ccccc2nc2[nH]c3ccccc3c12 as the compound, how does the logD read?
The logD was 2.69.

With c1ccc2nc3[nH]c4ccccc4c3cc2c1 as the compound, how does the logD read?
Its logD is 2.44.

With Cc1c2c3ccccc3nc-2n(C)c2c(C)cccc12 as the compound, how does the logD read?
Its logD is 2.46.
